Columns and labels:
DCN1 = DCN1 (Homo sapiens, UniProt Q96GG9); assay: Cocrystal structures of lyso-DCN1-inhibitor complexes; parameters: to DCN1 residues 62–251; His6 (N); TEV cleavage site (N); lysozyme residues 1–164 with C54T, C97A, A146T, D127A, R154A (fusion partner, N-terminal of DCN1); made in house; host or cells: Rosetta 2 cells (E. coli)
Procedure: Lysozyme–DCN1 gene was synthesized fusing lysozyme residues 1–164, containing mutations (C54T, C97A, A146T, D127A, and R154A), to DCN1 residues 62–251. Ligation independent cloning was utilized to clone the fused gene into an N-terminal His6–TEV expression vector. The clone was transformed into Rosetta 2 cells, grown in terrific broth at 37 °C, and expressed overnight with 0.4 mM isopropyl β-D-1-thiogalactopyranoside at 20 °C. Pelleted cells were freeze-thawed and lysed in 25 mM HEPES, pH 7.5, 150 mM NaCl, 0.1% β-mercaptoethanol and protease inhibitors. Cellular debris was removed via centrifugation. The supernatant was loaded onto a Ni-NTA (Qiagen) column at 4 °C. The column was washed with 25 mM HEPES, pH 7.5, 150 mM NaCl, and 20 mM imidazole, then protein eluted with buffer containing 300 mM imidazole. The eluate was applied to a Superdex 200 (GE Healthcare) equilibrated with 25 mM HEPES, pH 7.5, 200 mM NaCl, and 1 mM DTT. The protein was judged to be greater than 95% pure by SDS-PAGE, concentrated to 3.5 mg/mL and stored at −80 °C. Yield was 450 mg/L of expressed media.
Lyso–DCN1 protein was thawed and concentrated to 9.9 mg/mL in 25 mM HEPES, pH 7.5, 200 mM NaCl, and 1 mM DTT. Each compound was incubated with protein in a 1:1.2 protein to compound molar ratio overnight at 4 °C, then spun and setup in sitting drop vapor diffusion experiments. Crystallization drops contained 2 µL of protein–inhibitor solution and 1 µL of well solution. Crystals grew at 20 °C with well solution containing 28–33% PEG 3350 and 200 mM ammonium formate. Crystals were cryoprotected in 25 mM HEPES, pH 7.5, 200 mM NaCl, 30% PEG 3350, and 1 mM DTT.
Diffraction data were collected at a wavelength of 0.9786 Å on the APS LS-CAT 21-ID-G beamline at Argonne National Laboratory. Data were processed using HKL2000[44] and solved via molecular replacement using molrep[45] with two independent search models (lysozyme and DCN1) from PDB ID 5V83. The structures were iteratively fit and refined using Coot[46] and Buster[47]. […]

KEAP1 and p62 proteins = assay: Western blot, KEAP1 and p62 in U2OS and THLE2 cells; assay type: cell-based, human; conditions: 6 h
Procedure: (§1) Western blotting was performed as described previously. Treated cells were lysed by RIPA buffer supplemented with protease inhibitor. The expression level of indicated proteins was examined by immunoblotting analysis and GAPDH was used as the loading control. Antibodies were purchased commercially: cullin 1 (sc-17775, 1:500 dilution) and cullin 2 (sc-166506, 1:500 dilution) from Santa Cruz Biotech (Santa Cruz, CA); cullin 4A (PA5-14542, 1:1000 dilution), cullin 4B (PA5-50647, 1:1000 dilution), and DCN3 (DCUN1D3, PA5-44000, 1:1000 dilution) from Thermo Fisher Scientific (Wayne, MI); cullin 3 (2759, 1:1000), NRF2 (12721, 1:1000 dilution), HO-1 (70081, 1:1000 dilution), and Bim (2819, 1:1000 dilution) from Cell Signaling Technology (Boston, MA); DCN1 (GWB-E3D700, 1:1000 dilution) from GenWay Biotech (San Diego, CA); and cullin 5 (A302-173A, 1:500 dilution) from Bethyl Labs (Montgomery, TX). Results are representative of two independent experiments.
Supplementary Figure 22. Western blotting analysis of Keap1 and p62 in U2OS cells (a) and […]
The cells were treated with compounds as indicated for 6 h. Treated cells were harvested and lysed with RIPA buffer. The expression of P62 and Keap1 were examined by western blotting analysis. Antibody information:
Keap1 (cst, #8047), P62 (cst,#5114). GAPDH was used as a loading control. Representative images of two independent experiments are shown. […]

[1] = test system: p21, BIM and CDT1 proteins; assay: Western blot, CRL1 and CRL4A substrates; assay type: cell-based, human
Procedure: as §1

Chain of DCN1 (Q96GG9 62-251): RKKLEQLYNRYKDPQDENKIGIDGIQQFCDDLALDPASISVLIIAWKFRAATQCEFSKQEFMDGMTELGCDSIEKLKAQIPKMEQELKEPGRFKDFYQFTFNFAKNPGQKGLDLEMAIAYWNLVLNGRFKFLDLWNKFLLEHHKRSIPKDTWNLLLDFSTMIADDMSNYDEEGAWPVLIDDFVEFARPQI

| SMILES | covalent bond to Cys115 of DCN1 in the cocrystal structure (DCN1) | effect on protein levels of KEAP1 and p62 (KEAP1 and p62 proteins) | effect on the levels of p21, BIM and CDT1 proteins ([1]; concentrations up to 1000 nM) | effect on protein level of CDT1 ([1]; THLE2, Fig. 6b) |
| --- | --- | --- | --- | --- |
| C=C(CN1CCOCC1)C(=O)NC[C@@H](NC(=O)[C@H](Cc1nc2ccc(C(C)C)cc2s1)NC(=O)CC)C1CCCCC1 [DI-1548] | confirmed the covalent nature of these complexes | no obvious effect | no effect |  |
| C=C(CN(C)C)C(=O)NC[C@@H](NC(=O)[C@H](Cc1nc2ccc(C(C)C)cc2s1)NC(=O)CC)C1CCCCC1 [DI-1859] | confirmed the covalent nature of these complexes | no obvious effect |  | no effect |
